One block for each compound: values may come before it.
Experiments:
folic acid receptor = target: T1, folic acid receptor (Homo sapiens, UniProt P15328); test: Blocking of folate receptors: uptake of targeted platform 15 in KB cells with 20-fold excess blocking agent; type: cell-based; conditions: for Blocking of uptake of targeted platform 15 (FIG. 5d, 5e): 20 fold excess of blocking agent (for 13 with respect to folic acid content)
T1 construct: performed using FA-receptor-expressing KB cells (ATCC #CCL-17); host or cells: KB cells
T1 sequence (P15328 25-234): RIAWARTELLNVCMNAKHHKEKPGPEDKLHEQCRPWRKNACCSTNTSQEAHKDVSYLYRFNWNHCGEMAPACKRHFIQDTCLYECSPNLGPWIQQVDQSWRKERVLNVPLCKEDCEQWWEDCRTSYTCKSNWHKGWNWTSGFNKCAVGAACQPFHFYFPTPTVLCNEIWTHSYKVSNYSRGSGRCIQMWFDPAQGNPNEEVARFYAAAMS
Method: (§1) The uptake of the synthesized conjugates was performed using FA-receptor-expressing KB cells (ATCC #CCL-17) as previously described (see, e.g., Thomas et al, J. Med. Chem., 48, 3729-3735, 2005; herein incorporated by reference in its entirety). Cells were maintained in FA-free Roswell Park Memorial Institute-1640 (RPMI 1640) medium supplemented with 10% Fetal Bovine serum (FBS), […] L-glutamine, 100 U/ml penicillin and 100 μg/ml streptomycin in 5% CO2 at 37° C. Cells were planted into 24 wells plate at density 250,000 per well and allowed to reach ˜90% confluent on the day of the experiment. They were rinsed and incubated in serum free medium with conjugates for 1 hour at 37° C. in 5% CO2. In some wells, a 20-fold excess of free folic acid or the folic acid conjugated dendrimer was added 30 minutes prior to the addition of the dendrimer platform for the blocking of folate receptors.
(§2) The cellular fluorescence was quantified on a Beckman-Coulter EPICS-XL MCL flow cytometer, and the data were analyzed using Expo32 software (Beckman-Coulter, Miami, Fla.). Cells were trypsinized, rinsed and suspended in PBS containing 0.1% bovine serum albumin (PBSB). The viable cells were gated, and the mean FL1-fluorescence of 10,000 cells was quantified. Error bars are calculated using the half-peak coefficient of variation (HPCV) (see, e.g., Marie, D.; et al., Biol. Cell 1993, 78, 41-51; herein incorporated by reference in its entirety).
The final set of controls investigated active blocking of the folic acid receptor by either free folic acid (FIGS. 5d and 5f-green) or a folic acid-dendrimer conjugate without a fluorescent dye (13) (FIGS. 5e and 5f-orange) to prevent the specific up-take of the folic acid targeted dendrimer systema A 20 fold excess of blocking agent was employed relative to the targeted platform. For the blocking experiment using the single dendrimer-folic acid conjugate (13), molar equivalence was based on the folic acid content of the sample rather than the dendrimer content. Both blocking agents were evaluated at 30 nM, 100 nM, 300 nM, and 1000 nM. […] While the dendrimer-folic acid conjugate is not as effective at blocking as the free folic acid, approximately 75% blocking is achieved.

[1] = test system: FA-receptor-expressing KB cells; test: Cellular uptake of dendrimer conjugates in KB cells measured by flow cytometry; type: cell-based, human
Method: as §1, §2
Cellular uptake of the folic acid targeted dendrimer system (15) at four different concentrations (30 nM, 100 nM, 300 nM, and 1000 nM of 15) was measured in KB cells that express a high cellular membrane concentration of folic acid receptor (FAR). Fluorescence uptake was quantified by Flow Cytometry.
A series of control experiments were performed in order to ensure that uptake of the folic acid targeted dendrimer system (15) was occurring via receptor-mediated endocytosis and not non-specific membrane interactions. […] The second control sample contained a non-conjugated (un-clicked) mixture of the two dendrimers functionalized with either FITC or folic acid (13 and 14). Uptake of this mixture was quantified at 30 nM, 100 nM, and 300 nM (FIGS. 5c and 5f-teal). […] This control eliminates the possibility that the dendrimer modules could form a non-covalently linked complex that would be internalized. A third control sample (18) was composed of an un-targeted dendrimer module (17) coupled to the FITC conjugated imaging module (14). The un-targeted dual module platform (18) was assembled under the same conditions used to form the folic acid targeted platform (15). […] This un-targeted dendrimer platform control matches the molecular weight and size of the folic acid targeted dendrimer system (15).

- Blocking of uptake of targeted platform 15 (FIG. 5d, 5e) (folic acid receptor): successfully blocked
- Blocking of uptake of targeted platform 15 (folic acid receptor; 20 fold excess, added 30 minutes before, concentrations up to 100 nM): Complete blocking
Compound: Nc1nc2ncc(CNc3ccc(C(=O)N[C@@H](CCC(=O)O)C(=O)O)cc3)nc2c(=O)[nH]1 [free folic acid, folic acid, reference compound]

Compound: FA3.5-G5-Ac107-L-G5-Ac106-FITC3.2 [Compound 15]
- Cellular uptake (fluorescence, flow cytometry) ([1]; KB cells, 1 hour at 37° C., 30 nM, 100 nM, 300 nM and 1000 nM): dose dependent uptake
- Concentration at which uptake saturates ([1]; KB cells, 1 hour at 37° C., tested at 30-1000 nM): 100 nM
- Specific targeting of folic acid receptor in vitro ([1]; human epithelial cancer cell line (KB)): found to specifically target the over-expressed folic acid receptor

Compound: G5-Ac106-Azide2.5-FITC3.2 [Compound 14]
- Cellular uptake (FIG. 5b) ([1]; KB cells, 30 nM, 100 nM and 300 nM): not observed
- Cellular uptake above the background level ([1]; KB cells, 30 nM, 100 nM, 300 nM and 1000 nM): No uptake was observed
- Cellular uptake (FIG. 5b) ([1]; KB cells, 1000 nM): Very minimal uptake

- Blocking of uptake of targeted platform 15 (folic acid receptor; 20 fold excess based on folic acid content, evaluated at 30-1000 nM): approximately 75%
- Blocking of uptake of targeted platform 15 (FIG. 5d, 5e) (folic acid receptor): successfully blocked
Compound: G5-Ac107-Alkyne1.6-FA3.5 [Compound 13]

Compound: G5-Ac110.7-L-G5-Ac106-FITC3.2 [Compound 18]
- Mean fluorescence uptake beyond the background level ([1]; KB cells, concentrations up to 300 nM): no uptake was observed beyond the background level

— patent US20100158850A1, “DENDRIMER BASED MODULAR PLATFORMS” (The Regents of the University of Michigan, priority 2008, published 2010)
